From patent publication US9718840B2, “Condensed 5-oxazolidinone derivative” (SUMITOMO DAINIPPON PHARMA CO., LTD., priority 2014, dated 2017)

Legend:
[1] = molecular target: T1, Human urokinase (Homo sapiens, UniProt P00749); assay: Enzyme selectivity evaluation test: urokinase; format: biochemical
T1 construct: purchased Calbiochem
Method: S-2444 (pyroGlu-Gly-Arg-pNA.HCl) was added as the substrate at a final concentration of 300 μmol/L. After progression of the reaction, the absorbance was measured at OD 405 nm.

[2] = test system: Rabbit venous thrombus models; assay: Effect of combined use with antiplatelet drug using rabbit AVST model; format: in vivo; settings: alone
Method: Rabbit venous thrombus models were prepared by a modification of the report of Wong et al. (Wong P C. et al., J. Pharmacol. Exp. Ther. 292: 351-357 (2000)). […] A tracheostomy tube was inserted to each rabbit, which was then ventilated using a respirator. For the intravenous administration of a test drug and blood collection, catheters were inserted to the right femoral vein and the right femoral artery, respectively. An arteriovenous shunt filled with saline was inserted to the carotid artery and the jugular vein. […] Also, 4-0 silk thread having a length of 5 cm was indwelled in the arteriovenous shunt. Blood was sent for 30 minutes from the carotid artery to the jugular vein via the arteriovenous shunt. The shunt was removed, and the weight of the silk thread covered with thrombus was measured. The weight of the silk thread measured before the experiment was subtracted from the measured weight, and the obtained value was used as a wet thrombus weight. One hour before the open of the arteriovenous shunt, the test drug or a vehicle was promptly intravenously administered (0.67 mL/kg) and then continuously intravenously administered (1 mL/kg/hr). The continuous injection was continued throughout the experiment. […] STA calcium chloride (manufactured by Roche Diagnostics K.K.) was added in an amount equal thereto, and the time required for coagulation was measured.

[3] = molecular target: T2, Human FXa (Homo sapiens, UniProt P00742); assay: Enzyme selectivity evaluation test: FXa; format: biochemical
T2 construct: 4) Factor Xa (FXa); purchased Enzyme Research Laboratories
T2 sequence (P00742 235-488 limits assumed): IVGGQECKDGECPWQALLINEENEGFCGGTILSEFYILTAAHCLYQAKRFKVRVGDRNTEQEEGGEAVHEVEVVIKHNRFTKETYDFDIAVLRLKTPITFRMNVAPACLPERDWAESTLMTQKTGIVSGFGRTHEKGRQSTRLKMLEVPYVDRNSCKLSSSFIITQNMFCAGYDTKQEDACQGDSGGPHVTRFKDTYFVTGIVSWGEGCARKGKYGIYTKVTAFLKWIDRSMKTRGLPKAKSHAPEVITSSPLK
T2 sequence (P00742 41-179 partner limits assumed): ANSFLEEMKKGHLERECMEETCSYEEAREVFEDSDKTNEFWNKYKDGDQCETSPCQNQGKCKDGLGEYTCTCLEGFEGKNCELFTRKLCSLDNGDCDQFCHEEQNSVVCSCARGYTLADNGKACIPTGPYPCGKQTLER
Method: S-2222 (Bz-Ile-Glu(γ-OR)-Gly-Arg-pNAHC1 (SEQ ID NO: 1), R═H (50%) and R═CH3 (50%)) (manufactured by Chromogenix) was added as the substrate at a final concentration of 150 μmol/L. After progression of the reaction, the absorbance was measured at OD 405 nm.

[4] = molecular target: T3, Human plasmin (Homo sapiens, UniProt P00747); assay: Enzyme selectivity evaluation test: plasmin; format: biochemical
T3 construct: Human plasmin (manufactured by Sekisui Diagnostics, LLC); purchased Sekisui Diagnostics, LLC
T3 sequence (P00747 581-810 limits assumed): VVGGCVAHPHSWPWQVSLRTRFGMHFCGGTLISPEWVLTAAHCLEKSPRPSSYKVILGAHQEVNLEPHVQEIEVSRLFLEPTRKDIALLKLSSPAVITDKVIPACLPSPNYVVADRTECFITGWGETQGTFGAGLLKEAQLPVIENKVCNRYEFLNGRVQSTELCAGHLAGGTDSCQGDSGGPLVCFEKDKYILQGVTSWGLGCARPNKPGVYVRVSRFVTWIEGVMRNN
T3 sequence (P00747 97-580 partner limits assumed): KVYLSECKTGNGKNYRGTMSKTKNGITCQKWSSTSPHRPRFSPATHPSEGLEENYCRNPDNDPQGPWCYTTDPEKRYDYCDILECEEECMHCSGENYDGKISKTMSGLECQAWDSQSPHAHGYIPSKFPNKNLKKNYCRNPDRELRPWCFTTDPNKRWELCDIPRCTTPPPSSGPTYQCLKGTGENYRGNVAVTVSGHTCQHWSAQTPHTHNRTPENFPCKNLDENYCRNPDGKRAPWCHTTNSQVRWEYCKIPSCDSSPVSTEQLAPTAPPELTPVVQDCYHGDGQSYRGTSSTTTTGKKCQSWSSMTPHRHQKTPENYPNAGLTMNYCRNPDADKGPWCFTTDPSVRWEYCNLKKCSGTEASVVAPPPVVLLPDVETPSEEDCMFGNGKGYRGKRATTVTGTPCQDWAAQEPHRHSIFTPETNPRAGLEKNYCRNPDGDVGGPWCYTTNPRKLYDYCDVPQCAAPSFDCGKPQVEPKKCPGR
Method: (§1) S-2288 (H-D-Ile-Pro-Arg-pNA.2HCl) was added as the substrate at a final concentration of 300 μmol/L. After progression of the reaction, the absorbance was measured at OD 405 nm.

[5] = molecular target: Human tryptase; assay: Enzyme selectivity evaluation test: tryptase; format: biochemical
Method: as §1

[6] = molecular target: T4, Human t-PA (Homo sapiens, UniProt P00750); assay: Enzyme selectivity evaluation test: t-PA; format: biochemical
T4 construct: purchased Calbiochem
T4 sequence (P00750 36-562): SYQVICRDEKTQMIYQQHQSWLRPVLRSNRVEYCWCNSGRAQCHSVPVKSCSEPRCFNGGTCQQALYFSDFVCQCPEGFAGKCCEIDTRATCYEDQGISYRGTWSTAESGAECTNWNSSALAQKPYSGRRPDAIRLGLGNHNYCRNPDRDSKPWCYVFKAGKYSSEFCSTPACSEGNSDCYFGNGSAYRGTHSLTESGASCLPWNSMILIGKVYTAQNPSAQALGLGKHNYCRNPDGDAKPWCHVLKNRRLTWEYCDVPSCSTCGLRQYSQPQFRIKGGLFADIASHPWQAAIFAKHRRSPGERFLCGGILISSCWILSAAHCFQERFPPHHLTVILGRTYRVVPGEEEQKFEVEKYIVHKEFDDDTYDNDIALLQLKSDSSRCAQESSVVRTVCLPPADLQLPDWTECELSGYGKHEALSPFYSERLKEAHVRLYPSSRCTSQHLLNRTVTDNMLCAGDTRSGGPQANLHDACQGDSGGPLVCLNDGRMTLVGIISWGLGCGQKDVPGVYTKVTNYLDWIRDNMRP
Method: as §1

[7] = molecular target: T5, Tissue Factor (TF):Factor VIIa (FVIIa) Complex (Homo sapiens, UniProt P08709); assay: Enzyme selectivity evaluation test: TF:FVIIa complex; format: biochemical
T5 construct: Human FVIIa (manufactured by Enzyme Research Laboratories); purchased Enzyme Research Laboratories (FVIIa); R&D Systems, Inc. (TF)
T5 sequence (P08709 213-466 limits assumed): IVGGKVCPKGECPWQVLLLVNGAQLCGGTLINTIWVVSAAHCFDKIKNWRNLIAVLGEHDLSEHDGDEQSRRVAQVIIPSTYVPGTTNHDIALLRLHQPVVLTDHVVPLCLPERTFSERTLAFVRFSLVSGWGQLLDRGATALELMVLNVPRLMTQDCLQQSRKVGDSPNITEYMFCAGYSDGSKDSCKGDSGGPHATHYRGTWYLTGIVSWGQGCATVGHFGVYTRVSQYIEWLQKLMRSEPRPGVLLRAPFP
T5 sequence (P08709 61-212 partner limits assumed): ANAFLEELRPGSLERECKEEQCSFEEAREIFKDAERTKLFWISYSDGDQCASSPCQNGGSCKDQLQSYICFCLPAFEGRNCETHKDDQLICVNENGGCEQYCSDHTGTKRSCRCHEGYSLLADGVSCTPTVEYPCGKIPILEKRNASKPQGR
T5 sequence (P13726 33-251 partner limits assumed): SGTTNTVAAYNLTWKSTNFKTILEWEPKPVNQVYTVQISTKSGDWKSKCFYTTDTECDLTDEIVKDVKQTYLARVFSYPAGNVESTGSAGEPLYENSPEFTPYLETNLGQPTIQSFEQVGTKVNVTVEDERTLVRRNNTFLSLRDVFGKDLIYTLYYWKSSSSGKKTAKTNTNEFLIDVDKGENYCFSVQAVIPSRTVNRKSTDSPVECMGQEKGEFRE
Method: S-2288 (H-D-Ile-Pro-Arg-pNA.2HCl) (manufactured by Chromogenix) was added as the substrate at a final concentration of 300 μmol/L. After progression of the reaction, the absorbance was measured at OD 405 nm.

[8] = molecular target: Human Trypsin; assay: Enzyme selectivity evaluation test: trypsin; format: biochemical
Method: S-2222 (Bz-Ile-Glu(γ-OR)-Gly-Arg-pNA.HCl (SEQ ID NO: 1), R═H (50%) and R═CH3 (50%)) was added as the substrate at a final concentration of 150 μmol/L. After progression of the reaction, the absorbance was measured at OD 405 nm.

[9] = molecular target: T6, Human kallikrein (Homo sapiens, UniProt P03952); assay: Enzyme selectivity evaluation test: plasma kallikrein; format: biochemical
T6 construct: purchased Enzyme Research Laboratories
T6 sequence (P03952 391-638 limits assumed): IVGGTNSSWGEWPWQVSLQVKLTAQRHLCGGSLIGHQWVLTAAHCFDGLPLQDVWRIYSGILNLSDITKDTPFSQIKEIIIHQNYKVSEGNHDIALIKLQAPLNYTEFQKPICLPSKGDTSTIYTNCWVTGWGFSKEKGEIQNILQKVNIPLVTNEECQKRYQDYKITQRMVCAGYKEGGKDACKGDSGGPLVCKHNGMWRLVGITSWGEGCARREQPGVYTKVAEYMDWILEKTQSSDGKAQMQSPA
T6 sequence (P03952 20-390 partner limits assumed): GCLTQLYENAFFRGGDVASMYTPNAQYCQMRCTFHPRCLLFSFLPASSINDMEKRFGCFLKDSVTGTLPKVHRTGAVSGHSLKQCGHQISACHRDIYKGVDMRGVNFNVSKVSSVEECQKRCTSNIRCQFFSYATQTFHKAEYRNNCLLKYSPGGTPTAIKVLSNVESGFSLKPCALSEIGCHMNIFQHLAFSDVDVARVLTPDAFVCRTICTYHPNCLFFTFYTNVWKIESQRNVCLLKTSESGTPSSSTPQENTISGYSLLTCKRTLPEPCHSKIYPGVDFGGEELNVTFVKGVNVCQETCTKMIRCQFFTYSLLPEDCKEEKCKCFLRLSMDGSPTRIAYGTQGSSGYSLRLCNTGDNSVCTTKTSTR
Method: as §1

[10] = dose 0.5 + 0.75 mg/kg + mg/kg/h i.v.
[11] = dose 1.5 + 2.25 mg/kg + mg/kg/h i.v.

## Cl.N[C@H](CF)[C@H]1CC[C@H](C(=O)N2CC[C@@H](C3CCCCC3)[C@H]2C(=O)Nc2ccc3[nH]c(C(=O)O)cc3c2)CC1 [Reference Example 2-6, 5-{[(3S)-1-({trans-4-[(1S)-1-Amino-2-fluoroethyl]cyclohexyl}carbonyl)-3-cyclohexyl-L-prolyl]amino}-1H-indole-2-carboxylic acid hydrochloride]
[1]
  IC50: > 10 µM
[2]; [10]
  PT (ratio): 1.00 ± 0.02 ratio
  Thrombus weight: 66 ± 22 mg
  aPTT (ratio): 1.59 ± 0.15 ratio
[2]; [11]
  PT (ratio): 1.01 ± 0.00 ratio
  Thrombus weight: 36 ± 6 mg
  aPTT (ratio): 1.84 ± 0.10 ratio
[3]
  IC50: > 10 µM
[4]
  IC50: > 10 µM
[5]
  IC50: > 10 µM
[6]
  IC50: > 10 µM
[7]
  IC50: > 10 µM
[8]
  IC50: > 10 µM
[9]
  IC50: 0.43 µM
